# According to US20240043404A1 (AbbVie Inc., priority 2009, published 2024):
# Like-named read-outs stand apart in the source and are kept apart here.
# Tested on: RS4;11 cells
# Assay: RS4;11 cell viability assay (CellTiter Glo);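 also: acute lymphoblastic leukemia line RS4,11, EC50 derived from percentage of viable cells after treatment relative to untreated controls, cell killing taken as a measure of Bcl-2 inhibition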
# Format: cell-based, human
# Conditions: Homo sapiens, read-out: RS4
# [1] = RS4-11, 48 h, 50,000 cells per well, 10% human serum, 48 hours, 11 EC50 Values
# Protocol: The acute lymphoblastic leukemia (ALL) cell line RS4;11 was used as the primary human cell line to assess the cellular activity of Bcl-2 selective agents in vitro and their efficacy in vivo.
# Cell cytotoxicity EC50 values were assessed using CellTiter Glo (Promega) according to the manufacturer's recommendations. The EC50 values were determined as a percentage of viable cells following treatment compared to the untreated control cells.
SMILES,EC50 [1],"EC50 (RS4-11, Table 5, direct comparison Z=N with corresponding analogs Z=C, 11 EC50)"
"O=C(NS(=O)(=O)c1ccc(OCC2(F)CCOCC2)c(Cl)c1)c1ccc(N2CCN(CC3=C(c4ccc(Cl)cc4)CCC4(CCN(C5COC5)CC4)C3)CC2)cc1Oc1cnc2[nH]ccc2c1 [Example 325, N-({3-chloro-4-[(4-fluorotetrahydro-2H-pyran-4-yl)methoxy]phenyl}sulfonyl)-4-(4-{[9-(4-chlorophenyl)-3-(oxetan-3-yl)-3-azaspiro[5.5]undec-8-en-8-yl]methyl}piperazin-1-yl)-2-(1H-pyrrolo[2,3-b]pyridin-5-yloxy)benzamide]",12.3 nM,–
"COCCNc1ccc(S(=O)(=O)NC(=O)c2ccc(N3CCN(CC4=C(c5ccc(Cl)cc5)CC(C)(C)CC4)CC3)cc2Oc2ccc3[nH]ccc3c2)cc1S(=O)(=O)C(F)(F)F [Example 93, 4-(4-{[2-(4-chlorophenyl)-4,4-dimethylcyclohex-1-en-1-yl]methyl}piperazin-1-yl)-2-(1H-indol-5-yloxy)-N-({4-[(2-methoxyethyl)amino]-3-[(trifluoromethyl)sulfonyl]phenyl}sulfonyl)benzamide]",> 5000 nM,> 5000 nM
"CC1(C)CCC(CN2CCN(c3ccc(C(=O)NS(=O)(=O)c4ccc5nc[nH]c(=O)c5c4)c(Oc4cnc5[nH]ccc5c4)c3)CC2)=C(c2ccc(Cl)cc2)C1 [Example 70, 4-(4-{[2-(4-chlorophenyl)-4,4-dimethylcyclohex-1-en-1-yl]methyl}piperazin-1-yl)-N-[(4-oxo-3,4-dihydroquinazolin-6-yl)sulfonyl]-2-(1H-pyrrolo[2,3-b]pyridin-5-yloxy)benzamide]",> 5000 nM,–
"CCN(C)C(=O)N1CCO[C@H](COc2ncc(S(=O)(=O)NC(=O)c3ccc(N4CCN(CC5=C(c6ccc(Cl)cc6)CC(C)(C)CC5)CC4)cc3Oc3cnc4[nH]ccc4c3)cc2Cl)C1 [Example 334, (2S)-2-{[(3-chloro-5-{[4-(4-{[2-(4-chlorophenyl)-4,4-dimethylcyclohex-1-en-1-yl]methyl}piperazin-1-yl)-2-(1H-pyrrolo[2,3-b]pyridin-5-yloxy)benzoyl]sulfamoyl}pyridin-2-yl)oxy]methyl}-N-ethyl-N-methylmorpholine-4-carboxamide]",> 1000 nM,–
"CC1(C)CCC(CN2CCN(c3ccc(C(=O)NS(=O)(=O)c4ccc(OCC5(F)CCOCC5)c(C#N)c4)c(Oc4cnc5[nH]ccc5c4)c3)CC2)=C(c2ccc(Cl)cc2)C1 [Example 299, 4-(4-{[2-(4-chlorophenyl)-4,4-dimethylcyclohex-1-en-1-yl]methyl}piperazin-1-yl)-N-({3-cyano-4-[(4-fluorotetrahydro-2H-pyran-4-yl)methoxy]phenyl}sulfonyl)-2-(1H-pyrrolo[2,3-b]pyridin-5-yloxy)benzamide]",68 nM,–
"CC1(C)CCC(CN2CCN(c3ccc(C(=O)NS(=O)(=O)c4ccc(NC5CCC(N(CCC#N)C6CC6)CC5)c([N+](=O)[O-])c4)c(Oc4cnc5[nH]ccc5c4)c3)CC2)=C(c2ccc(Cl)cc2)C1 (centres unmarked) [Example 340, 4-(4-{[2-(4-chlorophenyl)-4,4-dimethylcyclohex-1-en-1-yl]methyl}piperazin-1-yl)-N-{[4-({4-[(2-cyanoethyl)(cyclopropyl)amino]cyclohexyl}amino)-3-nitrophenyl]sulfonyl}-2-(1H-pyrrolo[2,3-b]pyridin-5-yloxy)benzamide]",56.5 nM,–
"COCC(C)(C)CNc1ccc(S(=O)(=O)NC(=O)c2ccc(N3CCN(CC4=C(c5ccc(Cl)cc5)CC(C)(C)CC4)CC3)cc2Oc2cnc3[nH]ccc3c2)cc1[N+](=O)[O-] [Example 155, 4-(4-{[2-(4-chlorophenyl)-4,4-dimethylcyclohex-1-en-1-yl]methyl}piperazin-1-yl)-N-({4-[(3-methoxy-2,2-dimethylpropyl)amino]-3-nitrophenyl}sulfonyl)-2-(1H-pyrrolo[2,3-b]pyridin-5-yloxy)benzamide]",594 nM,–
"CC1(C)CCC(CN2CCN(c3ccc(C(=O)NS(=O)(=O)c4ccc(NCC5CCOC5)c([N+](=O)[O-])c4)c(Oc4cnc5[nH]ccc5c4)c3)CC2)=C(c2ccc(Cl)cc2)C1 (centres unmarked) [Example 114, 4-(4-{[2-(4-chlorophenyl)-4,4-dimethylcyclohex-1-en-1-yl]methyl}piperazin-1-yl)-N-({3-nitro-4-[(tetrahydrofuran-3-ylmethyl)amino]phenyl}sulfonyl)-2-(1H-pyrrolo[2,3-b]pyridin-5-yloxy)benzamide]",10.8 nM,–
"CC1(C)CCC(CN2CCN(c3ccc(C(=O)NS(=O)(=O)c4ccc(OCC5CCOC5)c(Cl)c4)c(Oc4cnc5[nH]ccc5c4)c3)CC2)=C(c2ccc(Cl)cc2)C1 (centres unmarked) [Example 323, 4-(4-{[2-(4-chlorophenyl)-4,4-dimethylcyclohex-1-en-1-yl]methyl}piperazin-1-yl)-N-{[3-chloro-4-(tetrahydrofuran-3-ylmethoxy)phenyl]sulfonyl}-2-(1H-pyrrolo[2,3-b]pyridin-5-yloxy)benzamide]",717 nM,–
"O=C(NS(=O)(=O)c1ccc(NC[C@H]2CC[C@H](O)CC2)c([N+](=O)[O-])c1)c1ccc(N2CCN(CC3=C(c4ccc(Cl)cc4)CCC(F)(F)C3)CC2)cc1Oc1cnc2[nH]ccc2c1 [Example 324, 4-(4-{[2-(4-chlorophenyl)-5,5-difluorocyclohex-1-en-1-yl]methyl}piperazin-1-yl)-N-[(4-{[(trans-4-hydroxycyclohexyl)methyl]amino}-3-nitrophenyl)sulfonyl]-2-(1H-pyrrolo[2,3-b]pyridin-5-yloxy)benzamide]",4.53 nM,–
"CC1(C)CC(c2ccc(Cl)cc2)=C(CN2CCN(c3ccc(C(=O)NS(=O)(=O)c4ccc(OCC5COCCO5)c([N+](=O)[O-])c4)c(Oc4cnc5[nH]ccc5c4)c3)CC2)CO1 (centres unmarked) [Example 32, 4-(4-{[4-(4-chlorophenyl)-6,6-dimethyl-5,6-dihydro-2H-pyran-3-yl]methyl}piperazin-1-yl)-N-{[4-(1,4-dioxan-2-ylmethoxy)-3-nitrophenyl]sulfonyl}-2-(1H-pyrrolo[2,3-b]pyridin-5-yloxy)benzamide]",81.5 nM,–
"CC1(C)CCC(CN2CCN(c3ccc(C(=O)NS(=O)(=O)c4ccc(NCC5CN(CCF)CCO5)c([N+](=O)[O-])c4)c(Oc4cnc5[nH]ccc5c4)c3)CC2)=C(c2ccc(Cl)cc2)C1 (centres unmarked) [Example 165, 4-(4-{[2-(4-chlorophenyl)-4,4-dimethylcyclohex-1-en-1-yl]methyl}piperazin-1-yl)-N-{[4-({[4-(2-fluoroethyl)morpholin-2-yl]methyl}amino)-3-nitrophenyl]sulfonyl}-2-(1H-pyrrolo[2,3-b]pyridin-5-yloxy)benzamide]",5.1 nM,–
"CC1(C)CCC(CN2CCN(c3ccc(C(=O)NS(=O)(=O)c4ccc(NN5CCN(C(=O)OC(C)(C)C)CC5)c([N+](=O)[O-])c4)c(Oc4cnc5[nH]ccc5c4)c3)CC2)=C(c2ccc(Cl)cc2)C1 [Example 232, tert-butyl 4-[(4-{[4-(4-{[2-(4-chlorophenyl)-4,4-dimethylcyclohex-1-en-1-yl]methyl}piperazin-1-yl)-2-(1H-pyrrolo[2,3-b]pyridin-5-yloxy)benzoyl]sulfamoyl}-2-nitrophenyl)amino]piperazine-1-carboxylate]",> 1000 nM,–
"CC1(C)CCC(CN2CCN(c3ccc(C(=O)NS(=O)(=O)c4cnc(OCC5COCCO5)c(Br)c4)c(Oc4cnc5[nH]ccc5c4)c3)CC2)=C(c2ccc(Cl)cc2)C1 (centres unmarked) [Example 50, N-{[5-bromo-6-(1,4-dioxan-2-ylmethoxy)pyridin-3-yl]sulfonyl}-4-(4-{[2-(4-chlorophenyl)-4,4-dimethylcyclohex-1-en-1-yl]methyl}piperazin-1-yl)-2-(1H-pyrrolo[2,3-b]pyridin-5-yloxy)benzamide]",313 nM,–
"CC1(C)CCC(CN2CCN(c3ccc(C(=O)NS(=O)(=O)c4ccc(NC5CN(C6CCOCC6)C5)c([N+](=O)[O-])c4)c(Oc4cnc5[nH]ccc5c4)c3)CC2)=C(c2ccc(Cl)cc2)C1 [Example 116, 4-(4-{[2-(4-chlorophenyl)-4,4-dimethylcyclohex-1-en-1-yl]methyl}piperazin-1-yl)-N-({3-nitro-4-[(1-tetrahydro-2H-pyran-4-ylazetidin-3-yl)amino]phenyl}sulfonyl)-2-(1H-pyrrolo[2,3-b]pyridin-5-yloxy)benzamide]",28.5 nM,–
"CC1(C)CCC(CC2CCN(c3ccc(C(=O)NS(=O)(=O)c4ccc(NCC5CCOCC5)c([N+](=O)[O-])c4)c(Oc4cnc5[nH]ccc5c4)c3)CC2)=C(c2ccc(Cl)cc2)C1 [Example 315, 4-(4-{[2-(4-chlorophenyl)-4,4-dimethylcyclohex-1-en-1-yl]methyl}piperidin-1-yl)-N-({3-nitro-4-[(tetrahydro-2H-pyran-4-ylmethyl)amino]phenyl}sulfonyl)-2-(1H-pyrrolo[2,3-b]pyridin-5-yloxy)benzamide]",210 nM,–
"CC1(C)CCC(CN2CCN(c3ccc(C(=O)NS(=O)(=O)c4ccc(NC5CN(C6COC6)C5)c([N+](=O)[O-])c4)c(Oc4cnc5[nH]ccc5c4)c3)CC2)=C(c2ccc(Cl)cc2)C1 [Example 256, 4-(4-{[2-(4-chlorophenyl)-4,4-dimethylcyclohex-1-en-1-yl]methyl}piperazin-1-yl)-N-[(3-nitro-4-{[1-(oxetan-3-yl)azetidin-3-yl]amino}phenyl)sulfonyl]-2-(1H-pyrrolo[2,3-b]pyridin-5-yloxy)benzamide]",18 nM,–
"CC1(C)CCC(CN2CCN(c3ccc(C(=O)NS(=O)(=O)c4cnc(OCC5CCOCC5)c(C#N)c4)c(Oc4cnc5[nH]ccc5c4)c3)CC2)=C(c2ccc(Cl)cc2)C1 [Example 36, 4-(4-{[2-(4-chlorophenyl)-4,4-dimethylcyclohex-1-en-1-yl]methyl}piperazin-1-yl)-N-{[5-cyano-6-(tetrahydro-2H-pyran-4-ylmethoxy)pyridin-3-yl]sulfonyl}-2-(1H-pyrrolo[2,3-b]pyridin-5-yloxy)benzamide]",181 nM,–
"COC(=O)N1CCOC(CNc2ccc(S(=O)(=O)NC(=O)c3ccc(N4CCN(CC5=C(c6ccc(Cl)cc6)CC(C)(C)CC5)CC4)cc3Oc3cnc4[nH]ccc4c3)cc2[N+](=O)[O-])C1 (centres unmarked) [Example 317, methyl 2-{[(4-{[4-(4-{[2-(4-chlorophenyl)-4,4-dimethylcyclohex-1-en-1-yl]methyl}piperazin-1-yl)-2-(1H-pyrrolo[2,3-b]pyridin-5-yloxy)benzoyl]sulfamoyl}-2-nitrophenyl)amino]methyl}morpholine-4-carboxylate]",13.3 nM,–
